By EC50 is commonly meant the concentration at which the effect is half-maximal.

Some results are limits rather than exact numbers.

In one assay the test system is HBV. The assay can be described thus: HBV inhibition assay in HepAD38 cells (extracellular HBV DNA by direct qPCR). It is filed as cell-based. To be noted: Hepatitis B virus, 8-point dose-response curve, 96 hours, read-out: HBV inh EC50. From the text: HepAD38 cell line (Ladner et al., Antimicrob Agents Chemother, 1997, 41, 1715-20) was used for HBV inhibition assays. HepAD38 is a subclone, derived from Hepatoblastoma cell line HepG2 (ATCC® Number: HB-8065™), that expresses HBV genome under the control of a tetracycline-responsive promoter in a TET-OFF system: addition of tetracycline suppresses HBV replication, while its removal switches on the process allowing HBV viral particles release in the cell supernatant. HepAD38 cell line is maintained in DMEM/F12, supplemented with 10% of fetal bovine serum, 1% of glutamine, 1% of penicillin/streptomycin, 0.4 mg/ml G418 and 0,3 ug/ml tetracycline. For the HBV inhibition assay, doxycycline-free medium is used in order to allow virion production.
HBV inhibition activity in vitro was performed in 96 multiwell plates. During the initial (primary) screening compounds were first tested in triplicates at concentrations of 0.1µM, 0.5µM amd 1µM. For selected compounds, an 8-point dose-response curve can be obtained using 1:2 serial dilutions (starting from 2.5 µM, 1.25µM or 0.4 µM, depending on the degree of inhibition observed during the primary screening). From the dose-response curves, half maximal effective concentration (EC50) can be calculated (see also below).
In more detail, compounds - typically dissolved in DMSO stock solutions - are diluted to 2x the final desired concentration in 100 µl of the above medium (without doxycycline) and plated in three replicates in the 96-well plates.
Simultaneously, HepAD38 cells - extensively pre-washed in tetracycline-free medium in order to induce HBV production - are suspended at 2*10^4 cells in 100 µl of tetracycline-free medium and added to each well of the plate, to yield a final assay volume of 200 µl DMSO - used for stock solutions and compounds dilutions - which is always present in the assays at a final concentration of 0.5%.
Plates are then incubated 96 hours at 37°C and then subjected to cell viability assay in order to define compounds cytotoxicity and to extracellular HBV quantification in order to evaluate antiviral activity of compounds. Cytotoxicity is assessed by a commercial fluorescence assay that measures the metabolic activity of cells, directly related to cell viability (Cell Titer Blue, Promega). Anti-HBV activity was evaluated by quantification of extracellular HBV DNA with direct qPCR. In particular, supernatant was collected and centrifuged for cell debris clarification, viral DNA was extracted from virions by addition of lysis buffer (1 mM 1,4-dithiothreitol, 0.2% sodium dodecyl sulphate) and incubated at 95°C for 10 min. Samples were then diluted 1:40 and real time PCR amplification was performed with SYBR green assay (Power SYBR™ Green PCR Master Mix-Thermo Fisher Scientific) and specific HBV primer (HBV-DF:5'-[…]-3' (SEQ ID No. 1), HBV-DR:5'-[…]-3' (SEQ ID No. 2)).
All HBV inhibition or antiviral activity data are typically reported in percent (%) relative to a non-treated reference sample. Excel and Graphpad Prism programs are typically used for data elaboration and EC50 calculation.
On the technique in general: Quantitative PCR measures a nucleic acid by following its amplification.
On to `O=C(Nc1cc(F)c(F)c(F)c1)c1ccc2c(c1)S(=O)(=O)N[C@]1(N2)C(=O)Nc2ccccc21` (single isomer, unassigned) [Example E129], for which the EC50 is above 1 µM.

Consider `O=C(Nc1cc(F)c(F)c(F)c1)c1ccc2c(c1)S(=O)(=O)N[C@@]1(N2)C(=O)Nc2ccccc21` (single isomer, unassigned) [Example E130], for which the EC50 is below 1 µM.

Take `O=C(Nc1cc(F)c(F)c(F)c1)c1cc2c(cc1Cl)NCNS2(=O)=O` [Example E7, 6-chloro-N-(3,4,5-trifluorophenyl)-3,4-dihydro-2H-benzo[e][1,2,4]thiadiazine-7-carboxamide 1,1-dioxide]: the EC50 was below 1 µM.

For the molecule `CC1Nc2cc(Cl)c(C(=O)Nc3cc(F)c(F)c(F)c3)cc2S(=O)(=O)N1` (stereo not shown) [Example E10, 6-chloro-3-methyl-N-(3,4,5-trifluorophenyl)-3,4-dihydro-2H-benzo[e][1,2,4]thiadiazine-7-carboxamide 1,1-dioxide], the EC50 was below 1 µM.

As for `CC1Nc2ccc(C(=O)Nc3cc(F)c(F)c(F)c3)cc2S(=O)(=O)N1` (stereo not shown) [Example E21, 3-methyl-N-(3,4,5-trifluorophenyl)-3,4-dihydro-2H-benzo[e][1,2,4]thiadiazine-7-carboxamide 1,1-dioxide], the EC50 is below 1 µM.

Staying with this assay, now noted: Hepatitis B virus, compound at 0.5 µM, 96 hours, relative to non-treated reference, read-out: Anti HBV Activity (conc µM).
As for `O=C(Nc1cc(F)c(F)c(F)c1)c1ccc2c(c1)S(=O)(=O)NC1(N2)C(=O)Nc2ccccc21` (racemic) [Example E56, 2'-oxo-N-(3,4,5-trifluorophenyl)-2H,4H-spiro[benzo[e][1,2,4]thiadiazine-3,3'-indoline]-7-carboxamide 1,1-dioxide], the inhibition at 0.5 µM was above 50%.

On to `[2H]C1([2H])Nc2ccc(C(=O)Nc3cc(F)c(F)c(F)c3)cc2S(=O)(=O)N1` [Example E2, N-(3,4,5-trifluorophenyl)-3,4-dihydro-2H-benzo[e][1,2,4]thiadiazine-3,3-d2-7-carboxamide 1,1-dioxide], for which the inhibition at 0.5 µM was above 50%.

For the molecule `O=C(Nc1cc(F)c(F)c(F)c1)c1ccc2c(c1)S(=O)(=O)NCN2O` [Example E4, 4-hydroxy-N-(3,4,5-trifluorophenyl)-3,4-dihydro-2H-benzo[e][1,2,4]thiadiazine-7-carboxamide 1,1-dioxide], the inhibition at 0.5 µM is below 50%.

With `O=C(Nc1cc(F)c(F)c(F)c1)c1ccc2c(c1)S(=O)(=O)N(O)CN2` [Example E5, 2-hydroxy-N-(3,4,5-trifluorophenyl)-3,4-dihydro-2H-benzo[e][1,2,4]thiadiazine-7-carboxamide 1,1-dioxide], the inhibition at 0.5 µM was below 50%.

Take `Cc1cc2c(cc1C(=O)Nc1cc(F)c(F)c(F)c1)S(=O)(=O)NCN2` [Example E9, 6-methyl-N-(3,4,5-trifluorophenyl)-3,4-dihydro-2H-benzo[e][1,2,4]thiadiazine-7-carboxamide 1,1-dioxide]: the inhibition at 0.5 µM is above 50%.

For the molecule `O=C(Nc1cc(F)c(F)c(F)c1)c1ccc2c(c1)S(=O)(=O)NC1(CCNCC1)N2` [Example E14, N-(3,4,5-trifluorophenyl)-2H,4H-spiro[benzo[e][1,2,4]thiadiazine-3,4'-piperidine]-7-carboxamide 1,1-dioxide], the inhibition at 0.5 µM is above 50%.

In the case of `CN1C(C(F)(F)F)Nc2ccc(C(=O)Nc3cc(F)c(F)c(F)c3)cc2S1(=O)=O` (stereo not shown) [Example E18, 2-methyl-3-(trifluoromethyl)-N-(3,4,5-trifluorophenyl)-3,4-dihydro-2H-benzo[e][1,2,4]thiadiazine-7-carboxamide1,1-dioxide], the inhibition at 0.5 µM was below 50%.

Regarding `O=C(Nc1cc(F)c(F)c(F)c1)c1ccc2c(c1)S(=O)(=O)NC(CCO)N2` (stereo not shown) [Example E22, 3-(2-hydroxyethyl)-N-(3,4,5-trifluorophenyl)-3,4-dihydro-2H-benzo[e][1,2,4]thiadiazine-7-carboxamide 1,1-dioxide], the inhibition at 0.5 µM was above 50%.

Staying with this assay, now noted: Hepatitis B virus, compound at 1 µM, 96 hours, relative to non-treated reference, read-out: Anti HBV Activity (conc µM).
With `O=C(Nc1cc(F)c(F)c(F)c1)c1ccc2c(c1)S(=O)(=O)NCN2` [Example E1, N-(3,4,5-trifluorophenyl)-3,4-dihydro-2H-benzo[e][1,2,4]thiadiazine-7-carboxamide 1,1-dioxide], the inhibition at 1 µM is above 50%.

Turning to `CN1CNS(=O)(=O)c2cc(C(=O)Nc3cc(F)c(F)c(F)c3)ccc21` [Example E3, 4-methyl-N-(3,4,5-trifluorophenyl)-3,4-dihydro-2H-benzo[e][1,2,4]thiadiazine-7-carboxamide 1,1-dioxide], the inhibition at 1 µM was below 50%.

As to `CN1CNc2ccc(C(=O)Nc3cc(F)c(F)c(F)c3)cc2S1(=O)=O` [Example E6, 2-methyl-N-(3,4,5-trifluorophenyl)-3,4-dihydro-2H-benzo[e][1,2,4]thiadiazine-7-carboxamide 1,1-dioxide], the inhibition at 1 µM was below 50%.

Turning to `O=C(Nc1cc(F)c(F)c(F)c1)c1cc2c(cc1Br)NCNS2(=O)=O` [Example E8, 6-bromo-N-(3,4,5-trifluorophenyl)-3,4-dihydro-2H-benzo[e][1,2,4]thiadiazine-7-carboxamide 1,1-dioxide], the inhibition at 1 µM is above 50%.

As to `O=C(Nc1ccc(F)c(F)c1)c1ccc2c(c1)S(=O)(=O)NC1(COC1)N2` [Example E11, N-(3,4-difluorophenyl)-2H,4H-spiro[benzo[e][1,2,4]thiadiazine-3,3'-oxetane]-7-carboxamide 1,1-dioxide], the inhibition at 1 µM was below 50%.

Turning to `O=C(Nc1ccc(F)c(F)c1)c1ccc2c(c1)S(=O)(=O)NC1(CCC1)N2` [Example E12, N-(3,4-difluorophenyl)-2H,4H-spiro[benzo[e] [1,2,4]thiadiazine-3,1'-cyclobutane]-7-carboxamide 1,1-dioxide], the inhibition at 1 µM is above 50%.

As to `O=C(Nc1cc(F)c(F)c(F)c1)c1ccc2c(c1)S(=O)(=O)NC1(CCOCC1)N2` [Example E13, N-(3,4,5-trifluorophenyl)-2',3',5',6'-tetrahydro-2H,4H-spiro[benzo[e] [1,2,4]thiadiazine-3,4'-pyran]-7-carboxamide1,1-dioxide], the inhibition at 1 µM is above 50%.

With `O=C(Nc1cc(F)c(F)c(F)c1)c1ccc2c(c1)S(=O)(=O)NC(C(F)(F)F)N2` (stereo not shown) [Example E15, 3-(trifluoromethyl)-N-(3,4,5-trifluorophenyl)-3,4-dihydro-2H-benzo[e][1,2,4]thiadiazine-7-carboxamide1,1-dioxide], the inhibition at 1 µM was below 50%.

Turning to `CC(C)OCCC1Nc2ccc(C(=O)Nc3cc(F)c(F)c(F)c3)cc2S(=O)(=O)N1` (stereo not shown) [Example E16, 3-(2-isopropoxyethyl)-N-(3,4,5-trifluorophenyl)-3,4-dihydro-2H-benzo[e][1,2,4]thiadiazine-7-carboxamide 1,1-dioxide], the inhibition at 1 µM is above 50%.

For `O=C(Nc1cc(F)c(F)c(F)c1)c1ccc2c(c1)S(=O)(=O)NC(C(F)F)N2` (stereo not shown) [Example E17, 3-(difluoromethyl)-N-(3,4,5-trifluorophenyl)-3,4-dihydro-2H-benzo[e][1,2,4]thiadiazine-7-carboxamide1,1-dioxide], the inhibition at 1 µM is above 50%.

In the case of `O=C(Nc1ccc(F)c(F)c1)c1ccc2c(c1)S(=O)(=O)NCN2` [Example E19, N-(3,4-difluorophenyl)-3,4-dihydro-2H-benzo[e][1,2,4]thiadiazine-7-carboxamide 1,1-dioxide], the inhibition at 1 µM is above 50%.

`CC1Nc2ccc(C(=O)Nc3ccc(F)c(F)c3)cc2S(=O)(=O)N1` (stereo not shown) [Example E20, N-(3,4-difluorophenyl)-3-methyl-3,4-dihydro-2H-benzo[e][1,2,4]thiadiazine-7-carboxamide 1,1-dioxide]: the inhibition at 1 µM is above 50%.

Source of the values: patent publication EP3597653A1, “CYCLIC INHIBITORS OF HEPATITIS B VIRUS” (IRBM S.P.A., priority 2018, dated 2020).
